In assay [1] the target is Neuronal acetylcholine receptor; alpha4/beta2 (Rattus norvegicus) (UniProt P09483+P12390). In words: Displacement of [3H]cytisine from rat brain alpha4beta2 nAChR up to 10 uM. On the technique in general: Displacement assays read how much labelled ligand stays bound in the presence of the test substance.
The target in assay [2] is T1, Neuronal acetylcholine receptor subunit alpha-7 (Homo sapiens, UniProt P36544). The assay can be described thus: Agonist activity at human recombinant alpha7 nAChR expressed in xenopus oocytes assessed as induction of Ca2+ current relative to acetylcholine. It counts as functional, cell-based. Conditions: Oocyte.
Assay [3] concerns the target Neuronal acetylcholine receptor subunit alpha-7 (Rattus norvegicus, UniProt Q05941). The assay can be described thus: Displacement of [3H]585539 from alpha7 nAChR in rat brain. The class given is tissue-based.
Assay [4] addresses T1, Neuronal acetylcholine receptor subunit alpha-7. In words: Agonist activity at human recombinant alpha7 nAChR expressed in xenopus oocytes assessed as induction of Ca2+ current. It counts as functional, cell-based, Oocyte.
Assay [5] concerns the target Neuronal acetylcholine receptor; alpha4/beta2 (Homo sapiens, UniProt P17787+P43681). In words: Inhibition of alpha4beta2 nAChR. The class given is protein-complex assay.
For assay [6], the target named is Neuronal acetylcholine receptor; alpha3/beta4 (Homo sapiens, UniProt P30926+P32297). In words: Inhibition of alpha3beta4 nAChR.

pEC50, pKi: −log10 of the molar value. The source made the active and inactive calls. No cut-off for these calls is given here.

The values that follow come from ChEMBL document CHEMBL1153174, “Structure-activity relationships of N-substituted ligands for the alpha7 nicotinic acetylcholine receptor” (Bioorg Med Chem Lett, 2010).

One may read the pKi as −log10 of the Ki, conventionally taken in molar units. The pEC50 is the negative decadic logarithm of the EC50, by convention in mol/L.

Sequence of Neuronal acetylcholine receptor subunit alpha-7 (Rattus norvegicus, UniProt Q05941) (Q05941 whole entry): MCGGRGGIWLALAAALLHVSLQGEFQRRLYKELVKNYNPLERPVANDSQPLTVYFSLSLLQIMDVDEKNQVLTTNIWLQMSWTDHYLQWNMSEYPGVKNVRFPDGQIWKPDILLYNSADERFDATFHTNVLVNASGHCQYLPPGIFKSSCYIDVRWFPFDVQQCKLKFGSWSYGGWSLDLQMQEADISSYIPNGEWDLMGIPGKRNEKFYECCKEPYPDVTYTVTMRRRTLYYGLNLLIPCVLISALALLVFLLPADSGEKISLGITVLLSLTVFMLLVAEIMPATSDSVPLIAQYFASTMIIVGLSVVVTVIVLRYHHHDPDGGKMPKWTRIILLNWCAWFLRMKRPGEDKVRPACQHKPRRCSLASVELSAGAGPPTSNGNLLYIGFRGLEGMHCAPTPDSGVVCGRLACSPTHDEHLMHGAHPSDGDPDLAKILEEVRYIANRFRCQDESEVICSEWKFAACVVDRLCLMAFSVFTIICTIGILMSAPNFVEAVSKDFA
T1 sequence (P36544 whole entry): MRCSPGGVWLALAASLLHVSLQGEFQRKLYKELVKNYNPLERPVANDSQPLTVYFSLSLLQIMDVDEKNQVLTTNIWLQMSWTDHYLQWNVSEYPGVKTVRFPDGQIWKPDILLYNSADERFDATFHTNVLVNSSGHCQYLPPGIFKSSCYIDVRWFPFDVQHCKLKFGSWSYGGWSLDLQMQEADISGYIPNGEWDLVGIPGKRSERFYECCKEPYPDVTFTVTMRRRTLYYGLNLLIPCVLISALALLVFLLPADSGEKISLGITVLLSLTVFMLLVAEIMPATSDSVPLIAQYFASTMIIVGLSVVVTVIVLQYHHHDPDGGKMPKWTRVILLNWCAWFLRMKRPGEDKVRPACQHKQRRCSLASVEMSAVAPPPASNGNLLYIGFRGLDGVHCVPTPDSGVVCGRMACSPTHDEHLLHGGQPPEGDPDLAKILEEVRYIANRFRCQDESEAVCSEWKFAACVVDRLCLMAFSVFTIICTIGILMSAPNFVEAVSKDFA
Sequence of Neuronal acetylcholine receptor; alpha4/beta2 (P17787 whole entry): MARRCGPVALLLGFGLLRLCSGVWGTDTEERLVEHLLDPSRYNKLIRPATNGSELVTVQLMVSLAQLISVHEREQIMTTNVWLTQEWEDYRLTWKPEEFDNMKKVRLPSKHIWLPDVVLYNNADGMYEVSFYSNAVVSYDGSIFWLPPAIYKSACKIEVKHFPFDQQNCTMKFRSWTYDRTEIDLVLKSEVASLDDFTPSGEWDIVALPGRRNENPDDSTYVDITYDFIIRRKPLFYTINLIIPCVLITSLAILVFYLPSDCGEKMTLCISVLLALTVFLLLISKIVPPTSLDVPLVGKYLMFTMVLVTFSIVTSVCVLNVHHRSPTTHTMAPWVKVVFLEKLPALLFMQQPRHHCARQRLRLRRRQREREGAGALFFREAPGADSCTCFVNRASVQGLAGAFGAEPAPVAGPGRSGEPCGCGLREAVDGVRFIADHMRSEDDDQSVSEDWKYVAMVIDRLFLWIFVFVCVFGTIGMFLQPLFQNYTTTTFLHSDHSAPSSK
Sequence of Neuronal acetylcholine receptor; alpha4/beta2 (P43681 whole entry): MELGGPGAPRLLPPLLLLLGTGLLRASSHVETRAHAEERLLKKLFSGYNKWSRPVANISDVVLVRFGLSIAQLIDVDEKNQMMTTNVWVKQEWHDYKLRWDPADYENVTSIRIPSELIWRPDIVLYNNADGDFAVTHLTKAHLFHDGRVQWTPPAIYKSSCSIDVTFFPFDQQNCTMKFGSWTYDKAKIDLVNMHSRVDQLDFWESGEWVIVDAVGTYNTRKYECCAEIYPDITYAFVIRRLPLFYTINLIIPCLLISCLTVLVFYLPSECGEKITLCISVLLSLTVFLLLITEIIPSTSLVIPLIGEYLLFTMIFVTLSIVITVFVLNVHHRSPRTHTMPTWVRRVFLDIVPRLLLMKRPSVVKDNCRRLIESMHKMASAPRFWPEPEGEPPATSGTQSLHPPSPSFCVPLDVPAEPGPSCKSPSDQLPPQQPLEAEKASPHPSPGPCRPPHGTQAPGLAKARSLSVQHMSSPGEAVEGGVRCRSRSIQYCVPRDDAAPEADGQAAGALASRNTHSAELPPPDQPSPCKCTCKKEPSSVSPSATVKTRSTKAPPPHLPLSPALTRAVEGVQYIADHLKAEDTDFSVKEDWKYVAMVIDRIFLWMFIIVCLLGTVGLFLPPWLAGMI
Sequence of Neuronal acetylcholine receptor; alpha3/beta4 (P30926 whole entry): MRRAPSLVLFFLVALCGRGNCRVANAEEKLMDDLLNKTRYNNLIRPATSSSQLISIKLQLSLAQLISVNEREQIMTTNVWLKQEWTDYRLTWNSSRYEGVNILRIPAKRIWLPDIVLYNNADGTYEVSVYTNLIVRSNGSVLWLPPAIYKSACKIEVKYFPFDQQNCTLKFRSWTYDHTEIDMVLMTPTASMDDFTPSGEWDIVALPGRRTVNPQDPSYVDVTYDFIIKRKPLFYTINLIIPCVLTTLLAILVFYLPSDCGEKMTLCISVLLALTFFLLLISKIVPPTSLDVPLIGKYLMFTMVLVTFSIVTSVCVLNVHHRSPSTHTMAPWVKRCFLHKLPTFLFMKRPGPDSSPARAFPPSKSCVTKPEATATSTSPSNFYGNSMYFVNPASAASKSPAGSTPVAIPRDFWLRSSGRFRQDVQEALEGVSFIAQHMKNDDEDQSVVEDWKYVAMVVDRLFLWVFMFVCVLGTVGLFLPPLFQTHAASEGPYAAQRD
Sequence of Neuronal acetylcholine receptor; alpha3/beta4 (P32297 whole entry): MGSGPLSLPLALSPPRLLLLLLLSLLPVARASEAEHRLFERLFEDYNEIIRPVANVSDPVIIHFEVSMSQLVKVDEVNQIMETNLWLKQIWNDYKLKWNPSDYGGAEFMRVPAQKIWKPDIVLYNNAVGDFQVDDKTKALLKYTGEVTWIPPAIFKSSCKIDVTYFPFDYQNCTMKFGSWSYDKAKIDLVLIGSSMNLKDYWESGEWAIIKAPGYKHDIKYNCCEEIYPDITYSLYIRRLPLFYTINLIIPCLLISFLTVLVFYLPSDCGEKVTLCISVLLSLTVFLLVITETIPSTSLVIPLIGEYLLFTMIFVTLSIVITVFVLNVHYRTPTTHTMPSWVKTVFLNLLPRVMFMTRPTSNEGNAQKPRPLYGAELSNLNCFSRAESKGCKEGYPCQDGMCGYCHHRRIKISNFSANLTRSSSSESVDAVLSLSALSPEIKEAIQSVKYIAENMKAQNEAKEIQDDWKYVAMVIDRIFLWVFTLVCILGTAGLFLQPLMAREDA

`Clc1ccc(CN2C[C@@H]3CN(c4ccc(-c5ccccc5)nn4)C[C@@H]3C2)cn1`: the outcome in assay [1] was inactive. Besides, in assay [2], the Activity was determined as 13%. Moreover, in assay [3], the negative-log Ki (pKi) is 6.99. The pEC50 in assay [4] is 4.93.
Regarding `c1ccc(-c2ccc(N3C[C@H]4CN(Cc5ccncc5)C[C@H]4C3)nn2)cc1`, in assay [1], the result was inactive. In addition, the pKi in assay [3] was 6.27.
As to `CCN1C[C@@H]2CN(c3ccc(-c4ccccc4)nn3)C[C@@H]2C1`, the result in assay [1] was inactive.
Molecule `CNC1CCN(c2ccc(-c3ccccc3)nn2)C1` (stereo not drawn) showed a negative logarithm of the Ki (pKi) in assay [3] of less than 8.00.
In assay [5], `Clc1ccc(C2CC3CCC2N3)cn1` (stereo not drawn) came in with an INH of 0.1 nM.
As to `CN(Cc1ccc(Cl)nc1)C1CCN(c2ccc(-c3ccccc3)nn2)C1` (racemic), the outcome in assay [1] was inactive. This molecule also gave a pKi in assay [3] of less than 8.00.
With `CN(C)C1CCN(c2ccc(-c3ccccc3)nn2)C1` (racemic), in assay [1], the result was inactive. The molecule further gave a pKi in assay [3] of 6.32.
For `CN(Cc1cccnc1)C1CCN(c2ccc(-c3ccccc3)nn2)C1` (racemic), the outcome in assay [1] was inactive. In assay [3], this molecule had a negative-log Ki (pKi) of less than 5.00.
Regarding `c1ccc(-c2ccc(N3C[C@H]4CN(Cc5ccccn5)C[C@H]4C3)nn2)cc1`, in assay [1], the outcome was inactive. This molecule also had a negative-log Ki (pKi) in assay [3] of 6.27.
Consider `CN(Cc1ccncc1)C1CCN(c2ccc(-c3ccccc3)nn2)C1` (racemic), for which the outcome in assay [1] was inactive. For the same molecule, the pKi in assay [3] is less than 8.00.
Consider `c1ccc(CN2C[C@@H]3CN(c4ccc(-c5ccccc5)nn4)C[C@@H]3C2)cc1`, for which the result in assay [1] was inactive. Moreover, the negative-log Ki (pKi) in assay [3] is 6.32.
For the molecule `CN1C[C@@H]2CN(c3ccc(-c4ccccc4)nn3)C[C@@H]2C1`, the negative-log Ki (pKi) is less than 4.00 in assay [5] and 5.33 in assay [6].
Turning to `CN1C[C@@H]2CN(c3ccc(-c4ccccc4)nn3)C[C@@H]2[C@H]1COc1cccnc1`, in assay [2], the Activity amounted to 44%. The molecule also gave a negative logarithm of the Ki (pKi) in assay [3] of 7.38. Also, the negative logarithm of the EC50 (pEC50) in assay [4] was 4.89.
The molecule `CN1C[C@@H]2CN(c3ccc(-c4ccccc4)nn3)C[C@@H]2[C@@H]1COc1cccnc1` had a negative logarithm of the Ki (pKi) in assay [3] of 6.49. In assay [4], the pEC50 was less than 4.00.
In the case of `CN(Cc1ccccc1)C1CCN(c2ccc(-c3ccccc3)nn2)C1` (racemic), in assay [1], the result was inactive. In assay [3], this molecule showed a pKi of less than 5.00.
On to `c1ccc(-c2ccc(N3C[C@H]4CN(Cc5cccnc5)C[C@H]4C3)nn2)cc1`, for which the outcome in assay [1] was inactive. Also, the Activity in assay [2] worked out at 84%. Besides, the pKi in assay [3] was 8.44. Besides, in assay [4], the pEC50 was 5.03.
With `CCN(C)C1CCN(c2ccc(-c3ccccc3)nn2)C1` (racemic), the outcome in assay [1] was inactive. In assay [3], this molecule had a pKi of 6.13.
In the case of `CN(Cc1ccccn1)C1CCN(c2ccc(-c3ccccc3)nn2)C1` (racemic), the result in assay [1] was inactive. The molecule also showed a pKi in assay [3] of less than 5.00.
